{
  "source": "patent US6503482B1",
  "about": "“Non-chlorofluorocarbon aerosol formulations” (Schering Corporation, priority 1993, dated 2003)",
  "origin": "cited, not measured here",
  "settings": "absolute pressure",
  "note": "Where two headings read alike, the source gives them in different places.",
  "data": [
    {"smiles": "FCC(F)(F)F", "note": "[HFC 134a, 1,1,1,2 tetrafluoroethane]", "values": [
      {"measurement": "vapor pressure", "setting": "same value in psia", "result": 84.7, "unit": "psia"},
      {"measurement": "vapor pressure", "setting": "stated too high for use in metered dose inhalators", "result": "5.84×10^5 newton/meter^2 absolute"}
    ]}
  ]
}
